Laboratory results: publication PMC4153677, “Probing the Activity Modification Space of the Cysteine Peptidase Cathepsin K with Novel Allosteric Modifiers” (PLoS ONE, 2014)
Where two headings read alike, the source gives them in different places.

How the values were obtained:
[1] = target: T1, Recombinant human cathepsin K (Homo sapiens, UniProt P43235); settings: cited from earlier work; for stability: ln(sf), sf = ratio of half-lives in the presence and absence of modifier: 37 °C and pH 7.4, data from previous work
T1 construct: made in house
T1 sequence (P43235 115-329): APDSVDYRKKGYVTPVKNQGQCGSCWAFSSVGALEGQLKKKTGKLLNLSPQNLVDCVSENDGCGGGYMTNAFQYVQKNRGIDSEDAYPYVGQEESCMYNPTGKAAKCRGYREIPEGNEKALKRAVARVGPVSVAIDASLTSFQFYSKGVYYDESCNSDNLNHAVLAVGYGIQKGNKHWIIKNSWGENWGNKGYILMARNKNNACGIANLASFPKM

[2] = target: T1, Recombinant human cathepsin K; settings: cited from earlier work; for Z-FRAMC: geometric mean of residual activities (vA): at 0.1×Km and 10×Km substrate, modifier 10×KA, previously known modifiers, data from previous work
[3] = target: T1, Recombinant human cathepsin K; parameters: key: qualitative values of 1 and 0 were used to signify inhibition and lack thereof, respectively; qualitative values of 1 and 0 were used to signify inhibition and lack thereof, respectively; a value of -1 was used to describe the concentration-dependent roles of glycosaminoglycans; settings: activity modification matrix; previously known modifiers, data from previous work; cited from earlier work
[4] = target: T1, Recombinant human cathepsin K; assay: Azocasein degradation assays; assay type: biochemical; settings: for azocasein: fraction of residual enzyme activity: value of 1 equals the activity of unmodified enzyme, activity modification matrix
From the text: Figure 4 Effect of modifiers on the degradation of macromolecular substrates. (A) Effect of increasing concentrations of compounds 1 and 2 on the degradation of calf skin collagen. Molecular mass standards are given in kDa and positions of α, β and γ chains of intact collagen are marked by arrows. (B) Effect of modifiers on azocasein degradation. (C) Effect of glycosaminoglycans and clusterin on azocasein degradation. Two different concentrations of each glycosaminoglycan were used in the experiments (10 µg/ml and 200 µg/ml). Error bars in panels B and C represent the SEM of three experiments. All experiments were performed in 100 mM sodium acetate buffer pH 5.50 containing 1 mM EDTA and 5 mM DTT, as described in detail in the Materials and Methods section. Abbreviations: CPD – compound, CS – chondroitin sulfate, DS – dermatan sulfate, HP – heparin.
Azocasein (Sigma-Aldrich, USA) was dissolved in 100 mM sodium acetate buffer pH 5.50 containing 1 mM EDTA and 5 mM DTT at a concentration of 3 mg/ml. Samples were incubated with 0.1 µM cathepsin K for 30 min at 37°C in the presence of each compound. […] Reactions were stopped by addition of trichloroacetic acid (final concentration 5% v/v), centrifuged, clear supernatants mixed with 0.5 M NaOH and the concentrations of solubilized peptides determined by measuring the absorbance at 440 nm. All experiments were performed in triplicates and appropriate blanks were run to take into account the absorption of azocasein and compounds alone. IC 50 values were determined as described previously.

| Substance | stability: ln(sf), sf = ratio of half-lives in the presence and absence of modifier [1] | Effect on stability of cathepsin K at physiological plasma pH 7.4 [1] | Z-FRAMC: geometric mean of residual activities (vA) [2] | Effect on the hydrolysis of Z-FR↓AMC [2] | Effect on the hydrolysis of Z-FR↓AMC ([2]; listed as CLU) | collagen: qualitative value [3] | Effect on azocasein degradation ([4]; glycosaminoglycans at 10 µg/ml and 200 µg/ml, clusterin) | azocasein: fraction of residual enzyme activity [4] | Effect on azocasein degradation ([4]; lowest concentration, 10 µg/ml) |
| --- | --- | --- | --- | --- | --- | --- | --- | --- | --- |
| clusterin: extracellular chaperone, stabilizer and liberator of cathepsin K | 0.79 | increase the stability | 1.00 | no effect on enzymatic activity | no modification | 0 | marginal inhibitory effect | 0.95 | – |
| chondroitin sulfate [reference compound] | -0.24 | – | 2.40 | – | – | -1 | – | 0.90 | ineffective |
| dermatan sulfate [reference compound] | -0.15 | – | 3.18 | – | – | -1 | – | 0.32 | – |
| heparin | 1.69 | increase the stability | 1.55 | – | – | -1 | – | 0.31 | – |
